Legend:
[1] = tested on: Leishmania infantum amastigotes; parameters: method as in PMID 30782984; settings: cited from earlier work
[2] = tested on: Leishmania major promastigotes; parameters: method as in PMID 36001225; settings: after 48 h (text b28); cited from earlier work
[3] = tested on: L. amazonensis promastigote; assay: Antipromastigote assay (resazurin fluorescence); type: cell-based, Leishmania amazonensis; settings: promastigotes, 72 h at 26 °C
Protocol: The fluorescence was measured using a Spectra Max GEMINI XPS spectrofluorometer (Molecular Devices, Silicon Valley, CA, USA) at excitation and emission wavelengths of 560 nm and 590 nm, respectively.

[4] = tested on: L. amazonensis intracellular amastigotes; assay: Antiamastigote assay in infected peritoneal macrophages (infection index); type: cell-based; settings: Leishmania amazonensis, Peritoneal macrophage, 72 h
Protocol: Resident macrophages from BALB/c mice were obtained by peritoneal lavage with 5 mL of cold RPMI medium. The cell suspension was adjusted to a 2 × 10^6 cells/mL concentration and plated in LAB-TEK chambers. After 1 h, the cultures were washed with phosphate-buffered saline at 37 °C to remove non-adherent cells. The remaining cells were incubated at 37 °C/5% CO2 with promastigotes of L. amazonensis at a ratio of 3:1. After 3 h, the chambers were rewashed to remove free parasites. […] For G2, we first tested only at a concentration of 10 µM, and derivatives with inhibition above 60% were evaluated using the dose–response curve. The antiamastigote activity was evaluated microscopically after staining the chambers with the Instant Prov hematological dye system (Newprov, Curitiba, Brazil); at least 100 macrophages were counted per sample. The results were expressed as the infection index (IF) using the following formula: IF = % infected cells X (number of amastigotes/total macrophages). The IC50 value was determined by nonlinear regression using Graph Pad Prism 9.0.

[5] = Toxicity assay in murine macrophages (resazurin); type: cell-based; settings: BALB/c, mouse, mouse peritoneal macrophages
Protocol: Mouse peritoneal macrophages (2 × 10^6 cells/mL) in 96-well plates were treated with different concentrations of thiourea compounds (G1: 0–400 µM and G2: 0–125 µM) for 72 h at 37 °C/5% CO2. After removing the supernatant, viable cells were quantified by adding resazurin in phosphate-buffered saline, a final concentration of 50 µM, and then the samples were incubated for an additional 3 h. The fluorescence was measured using a Spectra Max GEMINI XPS spectrofluorometer (Molecular Devices, Silicon Valley, CA, USA) at excitation and emission wavelengths of 560 nm and 590 nm, respectively. The percentage of viable cells was calculated relative to the control cells. The cytotoxic concentrations lethal to 50% of the cells (CC50) were obtained by nonlinear regression of the sigmoid growth curves using the Graph Pad Prism 9.0 software.

[6] = tested on: L. amazonensis promastigotes; parameters: method as in doi:10.5897/JMA2013.0261; settings: L. amazonensis promastigotes (text b27); cited from earlier work
[7] = tested on: Leishmania amazonensis amastigotes; parameters: method as in PMID 28966275; settings: read-out: IC50 (amastigote); cited from earlier work
[8] = Leishmania amazonensis, 72 h, G1 thioureas, maximum concentration tested 100 µM
[9] = Leishmania amazonensis, 72 h, G2 piperazine thioureas
[10] = G1 thioureas, maximum concentration tested 25 µM
[11] = G2 piperazine thioureas, maximum concentration tested 10 µM, unit from footnote
[12] = G1 thioureas, maximum concentration tested 100 µM
[13] = G2 piperazine thioureas, 0–125 µM

CCCCNC(=S)Nc1ccc([Se][Se]c2ccc(NC(=S)NCCCC)cc2)cc1 [Compound 10]
IC50 [1]: 2.36 ± 0.44 µM

Cc1sc(NC(=S)NC(=O)C2CC2)nc1-c1ccccc1 [Compound 11]
IC50 [2]: 122 ± 1.41 µM

CCCCCCCCCCCCCCCCOP(=O)([O-])OCC[N+](C)(C)C [Miltefosine, reference compound]
IC50 [3, 8]: 6.9 ± 2.4 µM
IC50 [3, 9]: 6.9 ± 2.4 µM
IC50 [4, 10]: 7.5 ± 1.2 µM
IC50 [4, 11]: 7.5 ± 1.2 µM
IC50 [1]: 2.84 ± 0.1 µM

S=C(Nc1ccccc1)N1CCOCC1 [Thiourea 3a]
IC50 [3, 8]: > 100 µM

COc1cc(NC(=S)Nc2nnc(C(F)(F)F)s2)cc(OC)c1OC [Thiourea 3a′]
IC50 [3, 8]: 77.8 ± 6.7 µM

S=C(NCc1ccccc1)N1CCOCC1 [Thiourea 3b]
IC50 [3, 8]: > 100 µM

CCCCNC(=S)Nc1cc(OC)c(OC)c(OC)c1 [Thiourea 3b′]
IC50 [3, 8]: > 100 µM

S=C(NCCc1ccccc1)N1CCOCC1 [Thiourea 3c]
IC50 [3, 8]: > 100 µM

S=C(Nc1ccccc1)Nc1ccccn1 [Thiourea 3d]
IC50 [4, 10]: 10.8 ± 2.4 µM
CC50 at 72 h ([5]; G1 thioureas, 0–400 µM): > 400 µM

S=C(NCc1ccccc1)Nc1ccccn1 [Thiourea 3e]
IC50 [3, 12]: 25.4 ± 8.3 µM
IC50 [3, 8]: < 50 µM
CC50 at 72 h ([5]; G1 thioureas, 0–400 µM): > 400 µM

S=C(NCCc1ccccc1)Nc1ccccn1 [Thiourea 3f]
IC50 [3, 8]: > 100 µM

COc1ccc(NC(=S)Nc2ccccc2)cc1 [Thiourea 3g]
IC50 [3, 8]: > 100 µM

COc1ccc(NC(=S)NCc2ccccc2)cc1 [Thiourea 3h]
IC50 [3, 8]: 61.6 ± 6.5 µM

COc1ccc(NC(=S)NCc2ccccc2)cc1OC [Thiourea 3i]
IC50 [3, 8]: > 100 µM

COc1ccc(NC(=S)NCCc2ccccc2)cc1OC [Thiourea 3j]
IC50 [3, 8]: > 100 µM

COc1cc(NC(=S)NCc2ccccc2)cc(OC)c1 [Thiourea 3k]
IC50 [3, 8]: > 100 µM

COc1cc(NC(=S)NCCc2ccccc2)cc(OC)c1 [Thiourea 3l]
IC50 [3, 8]: > 100 µM

COc1cc(NC(=S)NCCc2ccccc2)cc(OC)c1OC [Thiourea 3m]
IC50 [3, 8]: > 100 µM

O=C(NNC(=S)NCc1ccccc1)c1ccccc1 [Thiourea 3o]
IC50 [3, 8]: 80.4 ± 10 µM

S=C(Nc1ccccc1)Nc1ccc(Br)cc1 [Thiourea 3p]
IC50 [3, 12]: 32.9 ± 9.5 µM
IC50 [3, 8]: < 50 µM
IC50 [4, 10]: 8.7 ± 1.4 µM
CC50 at 72 h ([5]; G1 thioureas, 0–400 µM): > 400 µM

S=C(NCc1ccccc1)Nc1ccc(Br)cc1 [Thiourea 3q]
IC50 [3, 12]: 44.4 ± 10.6 µM
IC50 [3, 8]: < 50 µM
IC50 [4, 10]: > 25 µM
CC50 at 72 h ([5]; G1 thioureas, 0–400 µM): > 400 µM

Cc1nnc(NC(=S)Nc2ccccc2)s1 [Thiourea 3r]
IC50 [3, 8]: 65.8 ± 8.2 µM

CCc1nnc(NC(=S)NCc2ccccc2)s1 [Thiourea 3s]
IC50 [3, 8]: 58.4 ± 1.9 µM

CCCCNC(=S)Nc1ccccc1 [Thiourea 3t]
IC50 [3, 8]: 60 ± 6.4 µM

Cc1ccccc1NC(=S)NCc1ccccc1 [Thiourea 3u]
IC50 [3, 8]: 56.2 ± 4.2 µM

Oc1cccc(NC(=S)NCc2ccccc2)c1 [Thiourea 3v]
IC50 [3, 8]: > 100 µM

CN(C[C@H](O)[C@@H](O)[C@H](O)[C@H](O)CO)C(=S)NCc1ccccc1 [Thiourea 3w]
IC50 [3, 8]: > 100 µM

COc1cc(NC(=S)N2CCOCC2)cc(OC)c1OC [Thiourea 3x]
IC50 [3, 8]: > 100 µM

COc1cc(NC(=S)Nc2ccccn2)cc(OC)c1OC [Thiourea 3y]
IC50 [3, 8]: > 100 µM

COc1ccc(NC(=S)Nc2cc(OC)c(OC)c(OC)c2)cc1OC [Thiourea 3z]
IC50 [3, 8]: > 100 µM

O=C(C1CCCO1)N1CCN(C(=S)Nc2ccccc2)CC1 (stereo not drawn) [Thiourea 5a]
IC50 [3, 9]: > 128 µM

O=C(C1CCCO1)N1CCN(C(=S)NCc2ccccc2)CC1 (stereo not drawn) [Thiourea 5b]
IC50 [3, 9]: 77.5 ± 4.5 µM

O=C(C1CCCO1)N1CCN(C(=S)NCCc2ccccc2)CC1 (stereo not drawn) [Thiourea 5c]
IC50 [3, 9]: > 128 µM

S=C(Nc1ccccc1)N1CCN(Cc2ccc3c(c2)OCO3)CC1 [Thiourea 5d]
IC50 [3, 9]: 90.2 ± 2.9 µM

S=C(NCc1ccccc1)N1CCN(Cc2ccc3c(c2)OCO3)CC1 [Thiourea 5e]
IC50 [3, 9]: 30.3 ± 4.6 µM
IC50 [4, 11]: > 10 µM
CC50 at 72 h [5, 13]: 122 ± 2.8 µM

S=C(NCCc1ccccc1)N1CCN(Cc2ccc3c(c2)OCO3)CC1 [Thiourea 5f]
IC50 [3, 9]: > 128 µM

S=C(Nc1ccccc1)N1CCN(C(c2ccccc2)c2ccccc2)CC1 [Thiourea 5g]
IC50 [3, 9]: 30.7 ± 3.2 µM
IC50 [4, 11]: > 10 µM
CC50 at 72 h [5, 13]: > 125 µM

S=C(NCc1ccccc1)N1CCN(C(c2ccccc2)c2ccccc2)CC1 [Thiourea 5h]
IC50 [3, 9]: 7.9 ± 1.9 µM
IC50 [4, 11]: 8.8 ± 3.5 µM
CC50 at 72 h [5, 13]: > 125 µM

S=C(NCCc1ccccc1)N1CCN(C(c2ccccc2)c2ccccc2)CC1 [Thiourea 5i]
IC50 [3, 9]: 6.9 ± 2 µM
IC50 [4, 11]: 1.8 ± 0.5 µM
CC50 at 72 h [5, 13]: > 125 µM

S=C(Nc1ccccc1)N1CCN(c2ccccc2Cl)CC1 [Thiourea 5j]
IC50 [3, 9]: > 128 µM

S=C(NCc1ccccc1)N1CCN(c2ccccc2Cl)CC1 [Thiourea 5k]
IC50 [3, 9]: 30.7 ± 3 µM
IC50 [4, 11]: > 10 µM
CC50 at 72 h [5, 13]: 68.3 ± 2.8 µM

S=C(NCCc1ccccc1)N1CCN(c2ccccc2Cl)CC1 [Thiourea 5l]
IC50 [3, 9]: 28.2 ± 2.5 µM
IC50 [4, 11]: > 10 µM
CC50 at 72 h [5, 13]: 79.5 ± 19.8 µM

COc1ccc(CN2CCN(C(=S)Nc3ccccc3)CC2)c(OC)c1OC [Thiourea 5m]
IC50 [3, 9]: > 128 µM

COc1ccc(CN2CCN(C(=S)NCc3ccccc3)CC2)c(OC)c1OC [Thiourea 5n]
IC50 [3, 9]: 42.5 ± 1.6 µM
IC50 [4, 11]: > 10 µM
CC50 at 72 h [5, 13]: 88.3 ± 5.6 µM

COc1ccc(CN2CCN(C(=S)NCCc3ccccc3)CC2)c(OC)c1OC [Thiourea 5o]
IC50 [3, 9]: > 128 µM

S=C(Nc1ccccc1)N1CCN(c2nc3ccccc3[nH]2)CC1 [Thiourea 5p]
IC50 [3, 9]: > 128 µM

S=C(NCCc1ccccc1)N1CCN(c2nc3ccccc3[nH]2)CC1 [Thiourea 5q]
IC50 [3, 9]: 18.8 ± 3.1 µM
IC50 [4, 11]: > 10 µM
CC50 at 72 h [5, 13]: 72.9 ± 32.2 µM

COc1cc(NC(=S)N2CCN(C(=O)C3CCCO3)CC2)cc(OC)c1OC (stereo not drawn) [Thiourea 5r]
IC50 [3, 9]: > 128 µM

COc1cc(NC(=S)N2CCN(Cc3ccc4c(c3)OCO4)CC2)cc(OC)c1OC [Thiourea 5s]
IC50 [3, 9]: > 128 µM

COc1cc(NC(=S)N2CCN(C(c3ccccc3)c3ccccc3)CC2)cc(OC)c1OC [Thiourea 5t]
IC50 [3, 9]: 22.3 ± 1.6 µM
IC50 [4, 11]: 4.9 ± 1.2 µM
CC50 at 72 h [5, 13]: 81.3 ± 16.9 µM

COc1cc(NC(=S)N2CCN(c3ccccc3Cl)CC2)cc(OC)c1OC [Thiourea 5u]
IC50 [3, 9]: > 128 µM

COc1cc(NC(=S)N2CCN(Cc3ccc(OC)c(OC)c3OC)CC2)cc(OC)c1OC [Thiourea 5v]
IC50 [3, 9]: > 128 µM

CCOC(=O)c1ccc(NC(N)=S)cc1 [Thiourea 9]
IC50 [6]: 45 µM

C[C@@H]1[C@H](O)[C@@H](C)/C=C/C=C/C=C/C=C/C=C/C=C/C=C/[C@H](O[C@@H]2O[C@H](C)[C@@H](O)[C@H](N)[C@@H]2O)C[C@@H]2O[C@](O)(C[C@@H](O)C[C@@H](O)[C@H](O)CC[C@@H](O)C[C@@H](O)CC(=O)O[C@H]1C)C[C@H](O)[C@H]2C(=O)O [amphotericin B]
IC50 [2]: 0.2 ± 0.01 µM

N=C(N)c1ccc(OCCCCCOc2ccc(C(=N)N)cc2)cc1 [pentamidine]
IC50 [6]: 0.46 µM

meglumine antimoniate
IC50 [7]: 212 µM

Source: paper PMC11677126, “Synthesis and Structure–Activity Relationship of Thiourea Derivatives Against Leishmania amazonensis” (Pharmaceuticals, 2024)
